Test results reported in US9441012B2, “Fluorinated epoxyketone-based compounds and uses thereof as proteasome inhibitors” (FLUORINOV PHARMA INC., priority 2012, dated 2016).

How the values were obtained:
[1] = system: standard panel of 12 tumor cell lines; test: Hollow fiber assay (HFA); type: in vivo, mouse; details: ip, 75 mg/kg/dose and 35.5 mg/kg/dose, QD x 4
Protocol: Hollow fibre assay in vivo pharmacodynamic studies were carried out. This in vivo animal model uses semi-permeable biocompatible fibres that are filled with cancer cells, heat-sealed and implanted surgically (s.c. or i.p.) in mice or rats, which can then be treated with chemotherapeutics. Many different cell lines from different tissue origins and cellular characteristics can be encapsulated within the fibres, providing a cost-effective screening method.
The Oncology Program Screening and Characterization Strategy group at NCI uses HFA, which provides quantitative indices of drug efficacy with minimal expenditures of time and materials. Thus, the HFA is being utilized as the initial in vivo experience for compounds of Formula I.
A total of 3 different tumor lines are prepared for each experiment so that each mouse receives 3 intraperitoneal implants (1 of each tumor line) and 3 subcutaneous implants (1 of each tumor line). A compound is considered for xenograft testing if it produces cell kill of any cell line at either dose level evaluated, or it has a combined ip+sc score of 20 or greater, a sc score of 8 or greater. […]
The compound of Example 1 was evaluated in an HFA assay via ip administration at two doses; a 75 mg/kg/dose and a 35.5 mg/kg/dose, QD […] 4. […]

[2] = system: primary CD138+ myeloma cells; test: Viability of primary patient samples (Annexin V, anti-CD138, flow cytometry); type: cell-based, human; details: 24 hours
Protocol: Apoptosis was measured by staining cells treated with compounds of Formula I with annexin V-fluorescein isothiocyanate and propidium iodide (both from Biovision Research Products, Mountain View, Calif.) and flow cytometry according to manufacturer's instructions and as previously described [Blood. 2005, 105(10), 4043-4050]. Experiments were performed at least in duplicate and repeated at least twice (n=4-20 data points). Viable primary myeloma cells were identified by staining with phycoerythrin-conjugated mouse monoclonal anti-CD138 antibody (20 μL/[…] cells; Beckman Coulter, Brea, Calif.). The percentage of myeloma cells that were CD138 positive and annexin V negative after compounds of Formula (I) treatment compared with untreated samples was quantified as a marker of cell viability as previously described [Blood. 2007, 109(12), 5430-5438].
Effects of a representative of compounds of Formula I (the compound of Example 1) on the viability of primary malignant and normal hematopoietic cells isolated from patient samples was also studied. […] Viability of normal hematopoietic cells (CD138−) and myeloma cells (CD138+) were measured by flow cytometry with PE-labeled anti-CD138 and FITC-labeled Annexin V co-staining. […]

[3] = molecular target: purified beta proteasome subunits from Thermoplasma acidophilum; whole cell lysates from LP1 (Thermoplasma acidophilum, UniProt P28061); test: Enzymatic activity of purified proteasomes (FIG. 1); type: biochemical, Thermoplasma acidophilum; human; details: compared to bortezomib
Protocol: Purified beta proteasome subunits from the archaebacteria Thermoplasma acidophilum (A) or whole cell lysates from the human myeloma cell line LP1 (B).
Increasing concentrations ([…]) of compounds of Formula (I) and bortezomib were incubated with […] purified beta subunits of proteasomes isolated from Thermoplasma acidophilum in assay buffer supplemented with 2 mM ATP. DMSO alone was used as a control. After 1 hour of incubation at 37° C., the Suc-Leu-Leu-Val-Tyr-AMC substrate was added at a final concentration of 40 μM and CT-L proteasome activity was measured as described above for tumor cell lysates.
Purified beta proteasome subunits from the archaebacteria Thermoplasma acidophilum (A) and whole cell lysates from the human myeloma cell line LP1 (B) were used in the study.

MM.1S tumor cells = test: Myeloma MM.1S mouse xenograft model; type: in vivo
Protocol: The mice were irradiated (200 rads) using a Co60 irradiator source. After 24 his, each mouse was inoculated subcutaneously with 5×10^6 MM.1S tumor cells in 0.1 ml PBS for tumor development. Treatments were started when the tumor volume reached 100 mm^3. Each treatment group consisted of 10 mice. The compound of Example 1 was administrated to the tumor-bearing mice according to a specific predetermined regimen.

EKVX = test: NCI 60 human tumor cell line screen (SRB); type: cell-based; details: EKVX (Non-Small Cell Lung Cancer); 48 h
[4] = system: AML2 mouse xenograft leukemia model; test: Leukemia AML2 xenograft model; type: in vivo; details: 30 mg/kg oral gavage
Protocol: Sublethally irradiated NOD-SCID mice bearing an established human tumor xenograft derived from RL and BALB/c mice challenged with the murine tumor cell line AML2 were treated twice weekly on days 1 and 2 (QD×2) with a dose of 30 mg/kg to 200 mg/kg of the compound of Example 1 by oral gavage. Dosing began on Day 6 post tumor challenge.

[5] = 100 mg/kg p.o, days 1, 3, 5/wk×4 wks

Chain of purified beta proteasome subunits from Thermoplasma acidophilum; whole cell lysates from LP1 (P28061 9-211): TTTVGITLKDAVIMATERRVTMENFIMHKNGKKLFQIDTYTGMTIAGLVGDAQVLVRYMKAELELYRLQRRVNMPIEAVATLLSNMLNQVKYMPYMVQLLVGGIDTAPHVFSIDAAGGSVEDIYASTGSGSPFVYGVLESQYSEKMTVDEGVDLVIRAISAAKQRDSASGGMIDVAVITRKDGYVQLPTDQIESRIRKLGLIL
Chain of purified beta proteasome subunits from Thermoplasma acidophilum; whole cell lysates from LP1 (P25156 whole entry partner): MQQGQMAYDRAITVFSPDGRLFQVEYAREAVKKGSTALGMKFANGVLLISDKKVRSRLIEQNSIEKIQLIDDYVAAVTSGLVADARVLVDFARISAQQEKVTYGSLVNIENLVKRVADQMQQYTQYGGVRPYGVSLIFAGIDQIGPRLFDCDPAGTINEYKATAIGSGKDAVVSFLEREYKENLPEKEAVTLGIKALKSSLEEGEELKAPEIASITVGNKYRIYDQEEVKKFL

Compound: Cc1ncc(C(=O)N[C@@H](COC(F)F)C(=O)N[C@@H](COC(F)F)C(=O)N[C@@H](Cc2ccccc2)C(=O)[C@@]2(C)CO2)s1 [Example 1, 2-methyl-thiazole-5-carboxylic acid ((S)-1-{(S)-1-[(S)-1-benzyl-2-((R)-2-methyloxiranyl)-2-oxo-ethylcarbamoyl]-2-difluoromethoxyethylcarbamoyl}-2-difluoromethoxyethyl)-amide]
- cell killing in hollow fiber assay [1]: produced cell killing of multiple cell lines
- viability of primary CD138+ myeloma cells over CD138− normal hematopoietic cells ([2]; patient bone marrow or peripheral blood samples): selectively reduced the viability
- cell death in the plasma cells of the myeloma patients ([2]; patient samples): nanomolar concentrations
- effect on the enzymatic activity of purified proteasomes [3]: disrupts the ubiquitin-proteasome system
- antitumor activity vs. control (MM.1S tumor cells; 50 mg/kg p.o, qd×28 days): statically significant antitumor activity
- gross adverse effects including reductions in body weight or alterations in behaviour (MM.1S tumor cells; 50 mg/kg p.o, qd×28 days): no observed gross adverse effects
- antitumor activity vs. control (MM.1S tumor cells; [5]): statically significant antitumor activity
- gross adverse effects including reductions in body weight or alterations in behaviour (MM.1S tumor cells; [5]): no observed gross adverse effects
- Log10GI50 (EKVX): −6.22
- Log10LC50 (EKVX): >−4.00
- Log10TGI50 (EKVX): >−4.00
- gross adverse effects including reductions in body weight or alterations in behaviour [4]: no observed gross adverse effects
- tumor growth inhibition ([4]; twice weekly days 1 and 2 (QD×2)): greater than 40%
